# Test results: PubChem BioAssay (NCI)
#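 Dose response: 5 concentrations. Exposure: 48 h. Format: 96-well plates. Endpoint: linear interpolation; highest concentration if not reached. Definition used: TGI = concentration required for complete inhibition of growth.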
# Columns and labels:
# Test in all cases: NCI-60 cell line screen, 48 h
# CCRF-CEM leukemia = tested on: CCRF-CEM leukemia
# COLO 205 colon = tested on: COLO 205 colon
# EKVX NSCLC = tested on: EKVX NSCLC
# HCC-2998 colon = tested on: HCC-2998 colon
# HOP-62 NSCLC = tested on: HOP-62 NSCLC
# HT29 colon = tested on: HT29 colon
# LOX IMVI melanoma = tested on: LOX IMVI melanoma
# MDA-MB-231 breast = tested on: MDA-MB-231 breast
# OVCAR-3 ovarian = tested on: OVCAR-3 ovarian
# OVCAR-8 ovarian = tested on: OVCAR-8 ovarian
# T-47D breast = tested on: T-47D breast
# TK-10 renal = tested on: TK-10 renal
# UO-31 renal = tested on: UO-31 renal
# BT-549 breast = tested on: BT-549 breast
Compound,TGI (CCRF-CEM leukemia),TGI (COLO 205 colon),TGI (EKVX NSCLC),TGI (HCC-2998 colon),TGI (HOP-62 NSCLC),TGI (HT29 colon),TGI (LOX IMVI melanoma),TGI (MDA-MB-231 breast),TGI (OVCAR-3 ovarian),TGI (OVCAR-8 ovarian),TGI (T-47D breast),TGI (TK-10 renal),TGI (UO-31 renal),TGI (BT-549 breast)
COc1ccc2c(c1)N(C(C)=O)CN1C(=O)CCC21 (stereo unspecified),> 100 µM,> 100 µM,> 100 µM,> 100 µM,> 100 µM,> 100 µM,> 100 µM,> 100 µM,> 100 µM,> 100 µM,> 100 µM,> 100 µM,> 100 µM,–
CO/C(=N\N=C\c1ccc(OC)cc1OC)c1ccncc1,> 10 µM,> 10 µM,–,> 10 µM,> 10 µM,–,> 10 µM,–,–,> 10 µM,> 10 µM,> 10 µM,> 10 µM,–
COc1ccc(C2CCC(Cl)(OC)CC2C=O)cc1 (stereo unspecified),> 100 µM,> 100 µM,> 100 µM,> 100 µM,> 100 µM,> 100 µM,43.7 µM,–,> 100 µM,> 100 µM,–,> 100 µM,> 100 µM,–
c1ccc2[nH]c3[nH]c4[nH]c5ccccc5[nH]c4[nH]c3[nH]c2c1,> 100 µM,> 100 µM,> 100 µM,> 100 µM,> 100 µM,> 100 µM,> 100 µM,> 100 µM,> 100 µM,> 100 µM,–,> 100 µM,> 100 µM,> 100 µM
Cc1nccc2c1cnc1ccnn12,> 100 µM,> 100 µM,> 100 µM,> 100 µM,> 100 µM,> 100 µM,> 100 µM,–,> 100 µM,> 100 µM,–,> 100 µM,> 100 µM,–
Cc1[nH]n(-c2nc3c(c(=O)[nH]2)CCC3)c(=O)c1CCO,> 100 µM,> 100 µM,> 100 µM,> 100 µM,> 100 µM,> 100 µM,> 100 µM,> 100 µM,> 100 µM,> 100 µM,> 100 µM,> 100 µM,> 100 µM,–
CCOC(=O)C1=C(O)c2ccccc2C(=O)C1=O,> 100 µM,> 100 µM,> 100 µM,> 100 µM,> 100 µM,> 100 µM,> 100 µM,–,> 100 µM,> 100 µM,–,> 100 µM,> 100 µM,–
C=C(C)[C@@H]1CC[C@@H](C)[C@](O)([C@@H]2C[C@@H]([C@H](COC(=O)c3ccccc3)OC(=O)c3ccccc3)OC2=O)C1,> 100 µM,> 100 µM,> 100 µM,> 100 µM,> 100 µM,> 100 µM,> 100 µM,> 100 µM,> 100 µM,> 100 µM,–,> 100 µM,> 100 µM,> 100 µM
CC(=O)c1c(O)ccc2c1CC(CC=O)O2 (stereo unspecified),> 100 µM,> 100 µM,–,> 100 µM,> 100 µM,> 100 µM,60.9 µM,–,> 100 µM,> 100 µM,–,> 100 µM,> 100 µM,–
Cn1cnc2c(OCC3CCCCC3)nc(N)nc21,> 100 µM,> 100 µM,> 100 µM,> 100 µM,> 100 µM,> 100 µM,> 100 µM,> 100 µM,> 100 µM,> 100 µM,–,> 100 µM,> 100 µM,> 100 µM
Cn1c(=O)c2c(nc(C[N+]3([O-])CCOCC3)n2C)n(C)c1=O,> 100 µM,> 100 µM,> 100 µM,> 100 µM,> 100 µM,> 100 µM,> 100 µM,–,> 100 µM,> 100 µM,–,> 100 µM,> 100 µM,–
C[C@@H]1C[C@@H](O)[C@@]2(O)C13CC(=O)OC(C3)[C@@H](C)[C@@]2(C)CO (stereo partly specified),–,> 100 µM,> 100 µM,> 100 µM,> 100 µM,> 100 µM,> 100 µM,> 100 µM,> 100 µM,> 100 µM,> 100 µM,> 100 µM,> 100 µM,–
C=CCNC(=O)/C(Cc1cc(Br)c(OC)c(Br)c1O)=N\O,–,26 µM,25.2 µM,14.2 µM,22.9 µM,35 µM,55 µM,32.6 µM,10.7 µM,20.9 µM,–,64.8 µM,15.6 µM,18.3 µM
O=C(O)c1cc(-c2ccccc2O)nc2ccccc12,> 100 µM,> 100 µM,> 100 µM,> 100 µM,> 100 µM,> 100 µM,–,–,> 100 µM,> 100 µM,–,> 100 µM,> 100 µM,–
CCOC(=O)c1nc2ccc(Cl)cc2c2c1CCO2,> 100 µM,> 100 µM,> 100 µM,> 100 µM,> 100 µM,> 100 µM,> 100 µM,–,> 100 µM,> 100 µM,–,> 100 µM,–,–
COc1ccc(/C=C2\N=C(c3ccccc3)N(Nc3nnc(NN4C(=O)/C(=C/c5ccc(OC)cc5)N=C4c4ccccc4)c4ccccc34)C2=O)cc1,> 100 µM,> 100 µM,> 100 µM,–,> 100 µM,> 100 µM,43 µM,–,–,> 100 µM,–,–,–,–
Cc1cc(S(=O)(=O)Nc2nc(N)nc(N3CCOCC3)n2)c(SCC(=O)O)cc1Cl,> 10 µM,> 10 µM,> 10 µM,> 10 µM,> 10 µM,> 10 µM,> 10 µM,–,> 10 µM,> 10 µM,> 10 µM,> 10 µM,> 10 µM,> 10 µM
C/C(=N\NS(=O)(=O)c1ccc(C)cc1)C(CN(C)C)C(c1ccccc1)c1c(O)c2ccccc2oc1=O (stereo unspecified),> 100 µM,> 100 µM,> 100 µM,> 100 µM,> 100 µM,> 100 µM,> 100 µM,> 100 µM,> 100 µM,> 100 µM,–,> 100 µM,> 100 µM,> 100 µM
NC(=O)C12C3C4C1C1C2C3C41C(N)=O (stereo unspecified),> 100 µM,> 100 µM,> 100 µM,> 100 µM,> 100 µM,> 100 µM,> 100 µM,–,> 100 µM,> 100 µM,–,> 100 µM,> 100 µM,–
